Patent US9040501B2, “Compositions and methods for treating cancer” (Eisai Inc., priority 2009, dated 2015)
Like-named read-outs stand apart in the source and are kept apart here.

How the values were obtained:
cytidine deaminase (CDA) [1] = biological target: T1, cytidine deaminase (CDA) (Homo sapiens (Human), UniProt P32320); experiment: Effect of ER-876437 on the half-life of decitabine in the presence of CDA in Tris-HCl buffer at 37° C.; type: biochemical
Description: The solvent delivery system employed an HPLC quaternary pump, low pressure mixing. An autosampler having a variable loop, 0.1 to 100 μL range and temperature controlled thermostat was used. […] Degassed HPLC grade water and degassed HPLC grade acetonitrile were used as solvents for the mobile phases. […] [table]

murine lymphoma L1210 [2] = tested on: murine lymphoma L1210
Description: Preparation of L1210 Cells: L1210 ascitic cells were prepared by passaging them in mice at least three times as follows. Each CD2F1 female mouse was intraperitoneally (IP) injected with about 10^5 L1210 ascitic cells. After one week, the mouse was sacrificed (asphyxiation via CO2). The mouse was placed on its back, its belly surface was cleaned with alcohol wipes, and a small incision was made into the peritoneal cavity. […] Diluted ascites (diluted 1:10 again) were counted on a hematocytometer and the number of cells per mL was calculated. About 10^5 L1210 cells were used for a subsequent passage for another mouse passage. Or, a stock of L1210 ascites in BSA solution was diluted to 1×10^4 cells/0.1 ml for use in the study mice.
(§1) The mice were prepared with intravenous (IV) injection of L1210 ascites (prepared as described above) one day prior to commencing the dosing. […] The total IV injection for all mice took about 50 minutes.
Decitabine was prepared fresh twice a day, just prior to dosing. All solutions were stored on ice while dosing. Mice were dosed (intraperitoneally (IP) or per os (orally, PO)) twice a day (8 hours apart) for 4 consecutive days.
(§2) Dead mice were autopsied and observed for the presence of tumors in organs.
Preparation of study mice with IV injection of L1210 ascites took about 60 minutes. […] All solutions were stored on ice while dosing. Mice were dosed (IP or PO) twice a day (7 or 8 hours apart) for 4 consecutive days.

murine lymphoma L1210 [3] = conditions: ER-876437 10 mg/kg/Veh
Description: Or, a stock of L1210 ascites in BSA solution was diluted to 1×10^4 cells/0.1 ml for use in the study mice.
as §1
All solutions were stored on ice while dosing. Mice were dosed (intraperitoneally (IP) or per os (orally, PO)) twice a day (8 hours apart) for 4 consecutive days.
as §2

[4] = Stability in simulated gastric fluid at 37° C. (HPLC); type: physicochemical
From the text: […]. See Kararli, T. T. Comparison of the GI anatomy, physiology, and biochemistry of humans and commonly used laboratory animals. BioPharm & DrugDispos. 16:351-380, 1995, which is hereby wholly incorporated by reference. The gastric pH in fasted monkeys has been reported to have a similar range of 1-3. See Kondo, H. et al. Characteristics of the gastric pH profiles of unfed and fed cynomolgus monkeys as pharmaceutical product development subjects. BioPharm & DrugDispos. 24:45-51, 2003, which is hereby wholly incorporated by reference.
Materials: Simulated gastric fluid (SGF) was prepared by mixing the following into 100 mL of HPLC grade (or purified) water: 200 mg of sodium chloride and 1.87 mL of a 37.52% HCl stock solution.
The HPLC analyses were conducted using a Waters UPLC solvent delivery system with Corona CAD detection. The HPLC Column (Waters Atlantis HHS T3 2.1×100 mm, 1.8 um) was maintained at 40° C. and preequilibrated with a solution containing 98% water and 2% acetonitrile. The temperature controlled auto-sampler was maintained at 37° C. The flow rate for the Water/MeCN mobile phase was 0.65 mL/min, with a gradient following sample injection (5 μL) as follows: […]
The Water/MeCN mobile phase was applied to the column with the above described flow rate and gradient and the HPLC chromatograms were collected. After 3.5 minutes, the column was reequilibrated with 98% water/2% MeCN for 1.5 minutes.

cytidine deaminase (CDA) [5] = biological target: T1, cytidine deaminase (CDA); experiment: Effect of ER-876437 on the half-life of cytarabine in the presence of CDA in Tris-HCl buffer at 37° C.
[6] = Pharmacokinetics in mice after IV and PO administrations; type: in vivo, male BALB-c mice; conditions: for concentration at 0.167 hr / concentration at 0.5 hr / concentration at 1 hr / concentration at 2 hr / concentration at 4 hr / concentration at 6 hr / concentration at 8 hr / concentration at 24 hr: read-out: Plasma concentrations
Description: […]. All doses were prepared in phosphate buffered saline (PBS) and were administered at a volume of 5 mL/kg. Five mice per group were used in these studies. Blood samples were taken serially from the tail vein of each mouse at predetermined timepoints. Blood samples from all mice in each group were pooled together prior to processing for plasma. The pooled blood samples were spun down within 30-60 minutes after withdrawal and the plasma was harvested and frozen for assay. After preparation and extraction the samples were assayed by LC/MS/MS.

[7] = ER-876437 1.0 mg/kg/Veh, on autopsy
[8] = male, BALB-c, mouse, plasma, 10 mg/kg IV
[9] = male, BALB-c, mouse, plasma, 10 mg/kg PO

T1 sequence (P32320 whole entry): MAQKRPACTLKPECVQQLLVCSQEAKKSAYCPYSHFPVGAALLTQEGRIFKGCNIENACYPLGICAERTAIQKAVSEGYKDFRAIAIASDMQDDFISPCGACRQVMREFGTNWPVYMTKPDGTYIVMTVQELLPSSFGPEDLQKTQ

## O=C1NCC=CCN1[C@@H]1O[C@H](CO)[C@@H](O)C1(F)F [ER-876437, 1-((2R,4R,5R)-3,3-difluoro-4-hydroxy-5-(hydroxymethyl)tetrahydrofuran-2-yl)-3,4-dihydro-1H-1,3-diazepin-2(7H)-one]
Cytidine deaminase (CDA) [1]; Tris-HCl buffer at 37° C.
  inhibition of the effect of CDA on T1/2 of decitabine: nearly completely inhibited
Cytidine deaminase (CDA) [1]; after 12 hours exposure to CDA with decitabine
  levels of ER-876437: not affected
Murine lymphoma L1210 [2]; [7]
  Mean Liver wts (g) ± SD: 2.04 ± 0.15 g
  Mean Spleen wts (g) ± SD: 0.32 ± 0.02 g
Murine lymphoma L1210 [2]; ER-876437 1.0 mg/kg/Veh, twice a day (7 hours apart), 4 days
  Mean Survival (days) ± SD: 8.4 ± 0.55 days
Murine lymphoma L1210 [2]; ER-876437 1.0 mg/kg/Veh, vs vehicle group
  % ILS (Increased Life Span): 5.00%
Murine lymphoma L1210 [2]; with 0.1 mg/kg decitabine PO, L1210 survival model
  minimally effective dose: 0.1 mg/kg
Murine lymphoma L1210 [3]; on autopsy
  Mean Liver wts (g) ± SD: 2.02 ± 0.07 g
  Mean Spleen wts (g) ± SD: 0.37 ± 0.04 g
Murine lymphoma L1210 [3]; twice a day (8 hours apart), 4 days
  Mean Survival (days) ± SD: 7.6 ± 0.89 days
Murine lymphoma L1210 [3]; vs vehicle group
  % ILS (Increased Life Span): 2.70%
[4]; SGF at 37° C., analysis time 0:00:30
  % ER-876437 (peak retention time: 2.90 min): 85.88%
[4]; SGF at 37° C., analysis time 0:06:08
  % ER-876437 (peak retention time: 2.90 min): 85.72%
[4]; SGF at 37° C., analysis time 0:11:45
  % ER-876437 (peak retention time: 2.90 min): 86.46%
[4]; SGF at 37° C., analysis time 0:17:24
  % ER-876437 (peak retention time: 2.90 min): 86.38%
[4]; SGF at 37° C., analysis time 0:23:02
  % ER-876437 (peak retention time: 2.90 min): 83.22%
[4]; SGF at 37° C., analysis time 0:28:39
  % ER-876437 (peak retention time: 2.90 min): 83.48%
[4]; SGF at 37° C., analysis time 0:34:17
  % ER-876437 (peak retention time: 2.90 min): 83.80%
[4]; SGF at 37° C., analysis time 0:39:54
  % ER-876437 (peak retention time: 2.90 min): 84.16%
[4]; SGF at 37° C., analysis time 0:45:32
  % ER-876437 (peak retention time: 2.90 min): 82.62%
[4]; SGF at 37° C., analysis time 0:51:10
  % ER-876437 (peak retention time: 2.90 min): 82.41%
[4]; SGF at 37° C., analysis time 0:56:47
  % ER-876437 (peak retention time: 2.90 min): 82.45%
[4]; SGF at 37° C., analysis time 1:02:26
  % ER-876437 (peak retention time: 2.90 min): 82.45%
[4]; SGF at 37° C., analysis time 1:08:04
  % ER-876437 (peak retention time: 2.90 min): 82.55%
[4]; SGF at 37° C., analysis time 1:13:41
  % ER-876437 (peak retention time: 2.90 min): 83.11%
[4]; SGF at 37° C., analysis time 1:19:19
  % ER-876437 (peak retention time: 2.90 min): 81.82%
[4]; SGF at 37° C., analysis time 1:24:56
  % ER-876437 (peak retention time: 2.90 min): 81.24%
[4]; SGF at 37° C., analysis time 1:30:33
  % ER-876437 (peak retention time: 2.90 min): 79.20%
[4]; SGF at 37° C., analysis time 1:36:10
  % ER-876437 (peak retention time: 2.90 min): 79.14%
[4]; SGF at 37° C., analysis time 1:41:47
  % ER-876437 (peak retention time: 2.90 min): 78.47%
[4]; SGF at 37° C., analysis time 1:47:24
  % ER-876437 (peak retention time: 2.90 min): 77.88%
[4]; SGF at 37° C., analysis time 1:53:02
  % ER-876437 (peak retention time: 2.90 min): 78.29%
[4]; SGF at 37° C., analysis time 1:58:39
  % ER-876437 (peak retention time: 2.90 min): 78.56%
[4]; SGF at 37° C., analysis time 2:04:16
  % ER-876437 (peak retention time: 2.90 min): 77.21%
[4]; SGF at 37° C., analysis time 2:21:12
  % ER-876437 (peak retention time: 2.90 min): 76.06%
[4]; SGF at 37° C., analysis time 2:26:50
  % ER-876437 (peak retention time: 2.90 min): 77.34%
[4]; SGF at 37° C., analysis time 2:49:21
  % ER-876437 (peak retention time: 2.90 min): 75.34%
[4]; SGF at 37° C., analysis time 3:17:30
  % ER-876437 (peak retention time: 2.90 min): 72.37%
[4]; SGF at 37° C., analysis time 3:51:16
  % ER-876437 (peak retention time: 2.90 min): 50.13%
[4]; SGF at 37° C., analysis time 4:19:26
  % ER-876437 (peak retention time: 2.90 min): 51.88%
[4]; SGF at 37° C., analysis time 4:47:38
  % ER-876437 (peak retention time: 2.90 min): 48.95%
[4]; SGF at 37° C., analysis time 5:21:25
  % ER-876437 (peak retention time: 2.90 min): 45.19%
[4]; SGF at 37° C., analysis time 5:49:35
  % ER-876437 (peak retention time: 2.90 min): 47.44%
[4]; SGF at 37° C., analysis time 6:17:45
  % ER-876437 (peak retention time: 2.90 min): 44.94%
[4]; SGF at 37° C., analysis time 6:51:31
  % ER-876437 (peak retention time: 2.90 min): 43.29%
[4]; SGF at 37° C., analysis time 7:19:40
  % ER-876437 (peak retention time: 2.90 min): 41.85%
[4]; SGF at 37° C., analysis time 7:47:22
  % ER-876437 (peak retention time: 2.90 min): 41.72%
[4]; SGF at 37° C., analysis time 8:21:11
  % ER-876437 (peak retention time: 2.90 min): 36.89%
[4]; SGF at 37° C., analysis time 8:49:19
  % ER-876437 (peak retention time: 2.90 min): 37.52%
[4]; SGF at 37° C., analysis time 9:17:30
  % ER-876437 (peak retention time: 2.90 min): 36.34%
[4]; SGF at 37° C., analysis time 9:51:17
  % ER-876437 (peak retention time: 2.90 min): 34.61%
[4]; SGF at 37° C., analysis time 10:19:29
  % ER-876437 (peak retention time: 2.90 min): 31.94%
[4]; SGF at 37° C., analysis time 10:47:39
  % ER-876437 (peak retention time: 2.90 min): 32.33%
[4]; SGF at 37° C., analysis time 11:15:53
  % ER-876437 (peak retention time: 2.90 min): 29.85%
[4]; SGF at 37° C., analysis time 11:49:44
  % ER-876437 (peak retention time: 2.90 min): 29.94%
[4]; SGF at 37° C., analysis time 12:17:54
  % ER-876437 (peak retention time: 2.90 min): 27.99%
[4]; SGF at 37° C., analysis time 12:46:10
  % ER-876437 (peak retention time: 2.90 min): 27.39%
[4]; SGF at 37° C., analysis time 13:20:01
  % ER-876437 (peak retention time: 2.90 min): 26.14%
[4]; analysis time 0:00:00, initial sample in water
  % ER-876437 (peak retention time: 2.90 min): 92.18%
[4]; simulated gastric fluid (pH 1.45) at 37° C.
  half-life: 4 to 6 h
Cytidine deaminase (CDA) [5]; CDA plus ER-876437 in the incubation mixture, after 52 h
  cytarabine remaining: greater than 95%
Cytidine deaminase (CDA) [5]; Tris-HCl buffer at 37° C.
  inhibition of the effect of CDA on T1/2 of cytarabine: nearly completely inhibited
Cytidine deaminase (CDA) [5]; after 52 hours of exposure to CDA with cytarabine
  levels of ER-876437: not affected
[6]; 10 mg/kg
  t1/2 after PO administration relative to IV administration: roughly 2.5 fold
[6]; 10 mg/kg IV
  AUC0-∞: 13071 ng·h/mL
  AUC0-∞/D: 1307 ng · hr/mL/D
  AUCExtrap: 1.4%
  CL: 12.8 mL/min/kg
  dose-normalized exposures (AUC0-∞): 1310 ng·h/mL per mg/kg
  t1/2: 6.1 h
[6]; 10 mg/kg PO
  AUC0-∞: 9499 ng·h/mL
  AUC0-∞/D: 950 ng · hr/mL/D
  AUC(0-t): 8579 ng·h/mL
  AUCExtrap: 9.7%
  t1/2: 16.3 h
[6]; [8]
  AUC(0-inf): 13100 ng·h/mL
  clearance: 12.8 mL/min/kg
  half-life: 6.1 h
  concentration at 0.167 hr: 11800 ng/mL
  concentration at 0.5 hr: 7690 ng/mL
  concentration at 1 hr: 3470 ng/mL
  concentration at 2 hr: 1450 ng/mL
  concentration at 4 hr: 214 ng/mL
  concentration at 6 hr: 184 ng/mL
  concentration at 8 hr: 64 ng/mL
  concentration at 24 hr: 20 ng/mL
[6]; male, BALB-c, mouse, plasma, 10 mg/kg IV, read-out: AUC0-t
  AUC(0-t): 12900 ng·h/mL
[6]; male, BALB-c, mouse, plasma, 10 mg/kg IV, read-out: Vss
  Vd: 1.64 L/kg
[6]; [9]
  AUC(0-inf): 9500 ng·h/mL
  Cmax: 8600 ng/mL
  half-life: 16.3 h
  concentration at 0.167 hr: 8600 ng/mL
  concentration at 0.5 hr: 3720 ng/mL
  concentration at 1 hr: 4180 ng/mL
  concentration at 2 hr: 1140 ng/mL
  concentration at 4 hr: 146 ng/mL
  concentration at 6 hr: 36 ng/mL
  concentration at 8 hr: 103 ng/mL
  concentration at 24 hr: 39 ng/mL
[6]; male, BALB-c, mouse, plasma, 10 mg/kg PO vs IV, calculated based on AUC0-t, read-out: F (bioavailability)
  bioavailability: 66.5%
[6]; male, BALB-c, mouse, plasma, 10 mg/kg PO, read-out: AUC0-t
  AUC(0-t): 8580 ng·h/mL
